# Legend:
# Format in all cases: in vivo
# [1] = tested on: Echinochloa crus-galli; experiment: Greenhouse post-emergence (POST) herbicidal test on ECHCG
# Procedure: (§1) The culture containers used were plastic pots containing loamy sand with approximately 3.0% of humus as substrate. The seeds of the test plants were sown separately for each species.
# (§2) For the post-emergence treatment, the test plants were grown to a plant height of from 3 to 15 cm, depending on the plant habit, and only then treated with the active compounds which had been suspended or emulsified in water. To this end, the test plants were either sown directly, and grown in the same containers, or they were first grown separately as seedlings and transplanted into the test containers a few days prior to treatment.
# (§3) Depending on the species, the plants were kept at 10-25° C. and 20-35° C., respectively.
# (§4) The test period extended over 2 to 4 weeks. During this time, the plants were tended and their response to the individual treatments was evaluated.
# (§5) Evaluation was carried out using a scale from 0 to 100. 100 means no emergence of the plants, or complete destruction of at least the above-ground parts, and 0 means no damage or normal course of growth. A good herbicidal activity is given at values of at least 70, and very good herbicidal activity is given at values of at least 85.
# (§6) If not stated differently, the respective components A and B, and if appropriate, C were formulated as a 5% by weight strength emulsion concentrate and, with addition of the amount of solvent system, introduced into the spray liquor used for applying the active compound.
# (§7) As indicated application was either post emergent (POST) at the respective growth stage (GS) of the weed (BBCH code), or pre-emergent (PRE). […]
# [2] = tested on: Euphorbia heterophylla; experiment: Greenhouse post-emergence (POST) herbicidal test on EPHHL
# Procedure: as §1, §2, §3, §4, §5, §6, §7
# [3] = tested on: Geranium pusillum; experiment: Greenhouse post-emergence (POST) herbicidal test on GERPU
# Procedure: as §1, §2, §3, §4, §5, §6, §7
# [4] = tested on: Digitaria sanguinalis; experiment: Greenhouse post-emergence (POST) herbicidal test on DIGSA
# Procedure: as §1, §2, §3, §4, §5, §6, §7
# [5] = tested on: Commelina benghalensis; experiment: Greenhouse pre-emergence (PRE) herbicidal test on COMBE
# Procedure: as §1
# (§8) The containers were irrigated gently to promote germination and growth and subsequently covered with transparent plastic hoods until the plants had rooted.
# as §3, §4, §5, §7
# [6] = tested on: Euphorbia heterophylla; experiment: Greenhouse pre-emergence (PRE) herbicidal test on EPHHL; settings: Euphorbia heterophylla, pre-emergence
# Procedure: as §1, §8, §3, §4, §5, §7
# [7] = tested on: Alopecurus myosuroides; experiment: Greenhouse pre-emergence (PRE) herbicidal test on ALOMY; settings: Alopecurus myosuroides, pre-emergence
# Procedure: as §1, §8, §3, §4, §5, §7
# [8] = tested on: Lolium multiflorum; experiment: Greenhouse pre-emergence (PRE) herbicidal test on LOLMU; settings: Lolium multiflorum, pre-emergence
# Procedure: as §1, §8, §3, §4, §5, §7
# [9] = tested on: Echinochloa crus-galli; experiment: Greenhouse pre-emergence (PRE) herbicidal test on ECHCG; settings: Echinochloa crus-galli, pre-emergence, 432 h, read-out: % activity
# Procedure: as §1, §8, §3, §4, §5, §7
# [10] = tested on: Amaranthus retroflexus; experiment: Greenhouse post-emergence (POST) herbicidal test on AMARE
# Procedure: as §1, §2, §3, §4, §5, §6, §7
# [11] = tested on: Abutilon theophrasti; experiment: Greenhouse pre-emergence (PRE) herbicidal test on ABUTH
# Procedure: as §1, §8, §3, §4, §5, §7
# [12] = tested on: Abutilon theophrasti; experiment: Greenhouse post-emergence (POST) herbicidal test on ABUTH; settings: for % activity: ABUTH POST
# Procedure: as §1, §2, §3, §4, §5, §6, §7
# [13] = tested on: Setaria viridis; experiment: Greenhouse pre-emergence (PRE) herbicidal test on SETVI
# Excerpt: as §1
# For the pre-emergence treatment, the active compounds, suspended or emulsified in water, were applied directly after sowing by means of finely distributing nozzles. The containers were irrigated gently to promote germination and growth and subsequently covered with transparent plastic hoods until the plants had rooted. This cover caused uniform germination of the test plants unless this was adversely affected by the active compounds.
# as §3, §4, §5, §6, §7
# [14] = tested on: Ambrosia artemisiifolia; experiment: Greenhouse pre-emergence (PRE) herbicidal test on AMBEL; settings: PRE, AMBEL
# Procedure: as §1, §8, §3, §4, §5, §7
# [15] = Digitaria sanguinalis, post-emergence, 432 h, read-out: % activity
# [16] = Geranium pusillum, post-emergence, 432 h, read-out: % activity
# [17] = Abutilon theophrasti, pre-emergence, read-out: % activity
# [18] = Echinochloa crus-galli, post-emergence, 480 h, read-out: % activity
smiles,measurement,setting,value
"O=C(O)COc1ccc(Cl)cc1Cl [2,4-D]",% activity,"[1]; ECHCG POST, use rate 37.5 gai/ha",20%
same,% activity,"[2]; EPHHL POST, use rate 150 gai/ha",65%
same,% activity,"[3]; GERPU POST, use rate 150 gai/ha",70%
"N#Cc1cc(Br)c(O)c(Br)c1 [Bromoxynil, bromoxynil]",pest or weed control at 30 g/ha,[4]; [15],0%
same,pest or weed control at 120 g/ha,[4]; [15],15%
same,pest or weed control at 30 g/ha,"[5]; Commelina benghalensis, pre-emergence, 432 h, read-out: % activity",0%
same,pest or weed control at 30 g/ha,"[6]; 432 h, read-out: % activity",0%
same,pest or weed control at 30 g/ha,"[1]; Echinochloa crus-galli, post-emergence, 432 h, read-out: % activity",0%
same,pest or weed control at 30 g/ha,"[7]; 432 h, read-out: % activity",0%
same,pest or weed control at 120 g/ha,"[7]; 432 h, read-out: % activity",0%
same,pest or weed control at 30 g/ha,"[8]; 432 h, read-out: % activity",0%
same,pest or weed control at 120 g/ha,"[8]; 432 h, read-out: % activity",0%
same,pest or weed control at 30 g/ha,[9],0%
same,pest or weed control at 120 g/ha,[9],0%
same,pest or weed control at 30 g/ha,"[10]; Amaranthus retroflexus, post-emergence, 432 h, read-out: % activity",0%
same,pest or weed control at 30 g/ha,"[2]; Euphorbia heterophylla, post-emergence, 432 h, read-out: % activity",70%
same,pest or weed control at 120 g/ha,"[11]; Abutilon theophrasti, pre-emergence, 432 h, read-out: % activity",0%
same,pest or weed control at 30 g/ha,[3]; [16],5%
same,pest or weed control at 120 g/ha,[3]; [16],20%
"COc1c(Cl)ccc(Cl)c1C(=O)O [Dicamba, dicamba]",inhibition at 31.25 g/ha,"[2]; Euphorbia heterophylla, post-emergence, POST, EPHHL, use rate 31.25 gai/ha",10%
same,inhibition at 62.5 g/ha,"[2]; Euphorbia heterophylla, post-emergence, POST, EPHHL, use rate 62.5 gai/ha",35%
same,inhibition at 31.25 g/ha,"[12]; Abutilon theophrasti, post-emergence, POST, ABUTH, use rate 31.25 gai/ha",60%
same,inhibition at 62.5 g/ha,"[12]; Abutilon theophrasti, post-emergence, POST, ABUTH, use rate 62.5 gai/ha",65%
"C/C(=N\NC(=O)Nc1cc(F)cc(F)c1)c1ncccc1C(=O)O [Diflufenzopyr, diflufenzopyr]",inhibition at 3.8 g/ha,[6]; read-out: % activity,0%
same,inhibition at 3.8 g/ha,[8]; read-out: % activity,0%
same,inhibition at 3.8 g/ha,[11]; [17],0%
same,inhibition at 15 g/ha,[11]; [17],0%
same,inhibition at 15 g/ha,"[13]; Setaria viridis, pre-emergence, read-out: % activity",50%
"COC[C@H](C)N(C(=O)CCl)c1c(C)csc1C [Dimethenamid-P, dimethenamid-P]",% activity,"[10]; AMARE POST, use rate 200 gai/ha",0%
same,% activity,[12]; use rate 50 gai/ha,0%
same,% activity,[12]; use rate 200 gai/ha,25%
"CP(=O)(O)CCC(N)C(=O)O (stereo not drawn) [Glufosinate-Ammonium, glufosinate-ammonium]",inhibition at 150 g/ha,"[4]; Digitaria sanguinalis, post-emergence, 480 h, read-out: % activity",95%
same,inhibition at 75 g/ha,[1]; [18],0%
same,inhibition at 150 g/ha,[1]; [18],30%
same,inhibition at 150 g/ha,"[2]; Euphorbia heterophylla, post-emergence, 480 h, read-out: % activity",45%
same,inhibition at 75 g/ha,"[12]; Abutilon theophrasti, post-emergence, 480 h, read-out: % activity",30%
same,inhibition at 75 g/ha,"[3]; Geranium pusillum, post-emergence, 480 h, read-out: % activity",35%
CP(=O)(O)CC[C@H](N)C(=O)O.N [L-Glufosinate-P-Ammonium],% activity,"[1]; POST, ECHCG, use rate 75 gai/ha, 20 DAT",30%
same,% activity,"[3]; POST, GERPU, use rate 75 gai/ha, 20 DAT",65%
"CCCC(=NOCC(C)Oc1ccc(Cl)cc1)C1=C(O)CC(C2CCCSC2)CC1=O (stereo not drawn) [Profoxydim, profoxydim]",% activity,"[4]; DIGSA POST, use rate 6.3 gai/ha",60%
same,% activity,"[1]; ECHCG POST, use rate 6.3 gai/ha",80%
same,% activity,"[1]; ECHCG POST, use rate 12.5 gai/ha",85%
same,% activity,[12]; use rate 6.3 gai/ha,20%
same,% activity,"[3]; GERPU POST, use rate 6.3 gai/ha",0%
"C#CC(C)(C)NC(=O)c1cc(Cl)cc(Cl)c1 [Propyzamide, propyzamide]",pest or weed control at 250 g/ha,"[6]; 432 h, PRE, EPHHL, Propyzamide solo 250 gai/ha, 18 DAT, read-out: % activity",10%
same,pest or weed control at 1000 g/ha,"[6]; 432 h, PRE, EPHHL, Propyzamide solo 1000 gai/ha, 18 DAT",15%
same,pest or weed control at 250 g/ha,"[14]; Ambrosia artemisiifolia, pre-emergence, 432 h, Propyzamide solo 250 gai/ha, 18 DAT, read-out: % activity",0%
same,pest or weed control at 250 g/ha,"[1]; Echinochloa crus-galli, post-emergence, 432 h, POST, ECHCG, Propyzamide solo 250 gai/ha, 18 DAT, read-out: % activity",0%
same,pest or weed control at 1000 g/ha,"[1]; Echinochloa crus-galli, post-emergence, 432 h, POST, ECHCG, Propyzamide solo 1000 gai/ha, 18 DAT",30%
same,pest or weed control at 250 g/ha,"[10]; Amaranthus retroflexus, post-emergence, 432 h, POST, AMARE, Propyzamide solo 250 gai/ha, 18 DAT, read-out: % activity",20%
same,pest or weed control at 1000 g/ha,"[10]; Amaranthus retroflexus, post-emergence, 432 h, POST, AMARE, Propyzamide solo 1000 gai/ha, 18 DAT",50%
same,pest or weed control at 250 g/ha,"[2]; Euphorbia heterophylla, post-emergence, 432 h, POST, EPHHL, Propyzamide solo 250 gai/ha, 18 DAT, read-out: % activity",0%
same,pest or weed control at 250 g/ha,"[11]; Abutilon theophrasti, pre-emergence, 432 h, PRE, ABUTH, Propyzamide solo 250 gai/ha, 18 DAT",0%
same,pest or weed control at 1000 g/ha,"[11]; Abutilon theophrasti, pre-emergence, 432 h, PRE, ABUTH, Propyzamide solo 1000 gai/ha, 18 DAT",10%
same,pest or weed control at 1000 g/ha,"[12]; Abutilon theophrasti, post-emergence, 432 h, POST, ABUTH, Propyzamide solo 1000 gai/ha, 18 DAT",5%
same,pest or weed control at 1000 g/ha,"[3]; Geranium pusillum, post-emergence, 432 h, POST, GERPU, Propyzamide solo 1000 gai/ha, 18 DAT",20%
"COc1cc(OC)n2nc(NS(=O)(=O)c3c(C(F)(F)F)ccnc3OC)nc2n1 [Pyroxsulam, pyroxsulam]",% activity,"[5]; PRE, COMBE, Pyroxsulam solo 0.25 gai/ha, 20 DAT",10%
same,% activity,"[14]; Pyroxsulam solo 0.25 gai/ha, 20 DAT",15%
same,% activity,"[11]; PRE, ABUTH, Pyroxsulam solo 0.25 gai/ha, 20 DAT",0%
same,% activity,"[11]; PRE, ABUTH, Pyroxsulam solo 0.5 gai/ha, 20 DAT",5%
same,% activity,"[13]; PRE, SETVI, Pyroxsulam solo 0.25 gai/ha, 20 DAT",10%
"CCCN(CCC)c1c([N+](=O)[O-])cc(C(F)(F)F)cc1[N+](=O)[O-] [Trifluralin, trifluralin]",pest or weed control at 1000 g/ha,"[5]; Commelina benghalensis, pre-emergence, 480 h, PRE, COMBE, Trifluralin solo 1000 gai/ha, 20 DAT",80%
same,pest or weed control at 1000 g/ha,"[6]; 480 h, PRE, EPHHL, Trifluralin solo 1000 gai/ha, 20 DAT",35%
same,pest or weed control at 500 g/ha,"[14]; Ambrosia artemisiifolia, pre-emergence, 480 h, Trifluralin solo 500 gai/ha, 20 DAT, read-out: % activity",10%
same,pest or weed control at 1000 g/ha,"[7]; 480 h, PRE, ALOMY, Trifluralin solo 1000 gai/ha, 20 DAT",65%
same,pest or weed control at 500 g/ha,"[8]; 480 h, PRE, LOLMU, Trifluralin solo 500 gai/ha, 20 DAT, read-out: % activity",5%
same,pest or weed control at 1000 g/ha,"[8]; 480 h, PRE, LOLMU, Trifluralin solo 1000 gai/ha, 20 DAT",15%
same,pest or weed control at 500 g/ha,"[11]; Abutilon theophrasti, pre-emergence, 480 h, PRE, ABUTH, Trifluralin solo 500 gai/ha, 20 DAT, read-out: % activity",25%
same,pest or weed control at 500 g/ha,"[12]; Abutilon theophrasti, post-emergence, 480 h, POST, ABUTH, Trifluralin solo 500 gai/ha, 20 DAT, read-out: % activity",15%
same,pest or weed control at 1000 g/ha,"[12]; Abutilon theophrasti, post-emergence, 480 h, POST, ABUTH, Trifluralin solo 1000 gai/ha, 20 DAT",70%
same,pest or weed control at 500 g/ha,"[3]; Geranium pusillum, post-emergence, 480 h, POST, GERPU, Trifluralin solo 500 gai/ha, 20 DAT, read-out: % activity",25%
same,pest or weed control at 1000 g/ha,"[3]; Geranium pusillum, post-emergence, 480 h, POST, GERPU, Trifluralin solo 1000 gai/ha, 20 DAT",85%

# — US20260007133A1, “HERBICIDAL COMPOSITION COMPRISING AZINE COMPOUNDS” (BASF SE, priority 2022, published 2026)
